Assay results published in paper PMC9329436, “Optimization of the 4-anilinoquin(az)oline scaffold as epidermal growth factor receptor (EGFR) inhibitors for chordoma utilizing a toxicology profiling assay platform” (Scientific Reports, 2022).
Read-outs that look alike come from different tables or passages of the source.

Assays:
Type in all cases: biochemical
[1] = molecular target: T1, 320 wild-type protein kinases (Homo sapiens, UniProt P52564, S207D/T211D); details: MKK6 S207D/T211D**, singlicate
T1 sequence (P52564 1-334 S207D/T211D): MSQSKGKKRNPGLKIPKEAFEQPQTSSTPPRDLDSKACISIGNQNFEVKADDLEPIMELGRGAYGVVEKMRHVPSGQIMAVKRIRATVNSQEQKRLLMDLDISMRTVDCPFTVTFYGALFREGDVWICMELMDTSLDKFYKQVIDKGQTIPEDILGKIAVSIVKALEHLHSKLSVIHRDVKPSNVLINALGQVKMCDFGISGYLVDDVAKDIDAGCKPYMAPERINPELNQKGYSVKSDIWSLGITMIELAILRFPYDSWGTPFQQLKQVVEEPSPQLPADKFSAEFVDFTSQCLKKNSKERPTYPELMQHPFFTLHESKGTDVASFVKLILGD
From the text: (§1) Table S4. Profiling of two compounds at two concentrations against 320 wild-type protein kinases; singlicate measurement; Residual activities (% of control).

[2] = molecular target: T2, 320 wild-type protein kinases (Homo sapiens, UniProt Q9BXA7); details: kinase TSSK1, singlicate
T2 sequence (Q9BXA7 1-367): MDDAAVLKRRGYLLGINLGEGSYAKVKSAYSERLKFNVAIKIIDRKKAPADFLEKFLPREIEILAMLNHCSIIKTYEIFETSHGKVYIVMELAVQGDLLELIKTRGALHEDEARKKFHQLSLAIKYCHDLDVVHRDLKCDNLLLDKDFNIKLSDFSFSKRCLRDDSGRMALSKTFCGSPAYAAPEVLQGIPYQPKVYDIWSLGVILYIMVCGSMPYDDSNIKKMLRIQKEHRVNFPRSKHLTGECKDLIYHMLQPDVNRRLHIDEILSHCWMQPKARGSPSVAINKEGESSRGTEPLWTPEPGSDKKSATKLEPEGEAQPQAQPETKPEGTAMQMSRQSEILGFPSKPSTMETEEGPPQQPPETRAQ
From the text: as §1

[3] = molecular target: 320 wild-type protein kinases (Homo sapiens, UniProt O96013); details: singlicate
From the text: as §1

[4] = molecular target: T3, 320 wild-type protein kinases (Homo sapiens, UniProt Q08881); details: ITK, singlicate
T3 sequence (Q08881 1-620): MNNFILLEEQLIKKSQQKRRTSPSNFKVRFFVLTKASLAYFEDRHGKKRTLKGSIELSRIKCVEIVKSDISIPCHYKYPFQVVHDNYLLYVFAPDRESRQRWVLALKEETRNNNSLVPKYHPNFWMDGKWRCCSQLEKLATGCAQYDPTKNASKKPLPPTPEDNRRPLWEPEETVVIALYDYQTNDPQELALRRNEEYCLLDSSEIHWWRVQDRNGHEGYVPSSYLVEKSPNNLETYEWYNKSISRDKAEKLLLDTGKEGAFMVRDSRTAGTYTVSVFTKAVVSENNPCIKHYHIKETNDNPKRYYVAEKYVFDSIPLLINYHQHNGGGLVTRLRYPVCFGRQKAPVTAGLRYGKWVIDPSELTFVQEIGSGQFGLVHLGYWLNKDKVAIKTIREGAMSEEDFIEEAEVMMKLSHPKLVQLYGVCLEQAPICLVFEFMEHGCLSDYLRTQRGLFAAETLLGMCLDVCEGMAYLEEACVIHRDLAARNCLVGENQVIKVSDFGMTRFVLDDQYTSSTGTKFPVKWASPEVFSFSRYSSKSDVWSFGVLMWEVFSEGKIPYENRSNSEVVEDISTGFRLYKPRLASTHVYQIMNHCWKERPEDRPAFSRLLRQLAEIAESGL
From the text: as §1

[5] = molecular target: T4, 320 wild-type protein kinases (Homo sapiens, UniProt Q14164); details: IKK-epsilon, singlicate
T4 sequence (Q14164 1-716): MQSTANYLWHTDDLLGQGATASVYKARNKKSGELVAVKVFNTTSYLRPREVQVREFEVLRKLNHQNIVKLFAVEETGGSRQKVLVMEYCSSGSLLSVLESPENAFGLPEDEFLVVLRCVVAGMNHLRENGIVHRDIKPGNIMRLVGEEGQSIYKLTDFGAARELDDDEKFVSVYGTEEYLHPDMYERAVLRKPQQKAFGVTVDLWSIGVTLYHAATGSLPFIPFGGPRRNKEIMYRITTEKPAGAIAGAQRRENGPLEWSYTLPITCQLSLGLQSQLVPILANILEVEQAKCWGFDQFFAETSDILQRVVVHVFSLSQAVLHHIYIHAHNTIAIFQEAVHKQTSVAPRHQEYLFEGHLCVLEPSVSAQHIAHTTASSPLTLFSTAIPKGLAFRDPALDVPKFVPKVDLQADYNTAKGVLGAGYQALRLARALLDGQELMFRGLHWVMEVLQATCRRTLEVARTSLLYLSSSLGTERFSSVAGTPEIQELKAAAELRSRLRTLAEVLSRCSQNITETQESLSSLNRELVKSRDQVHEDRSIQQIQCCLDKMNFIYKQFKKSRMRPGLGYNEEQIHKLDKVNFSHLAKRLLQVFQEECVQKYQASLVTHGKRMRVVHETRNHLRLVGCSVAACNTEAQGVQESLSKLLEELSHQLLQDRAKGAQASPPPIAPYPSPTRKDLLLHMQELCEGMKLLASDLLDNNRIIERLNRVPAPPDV
From the text: as §1

Sequence of 320 wild-type protein kinases (Homo sapiens, UniProt O96013) (O96013 whole entry): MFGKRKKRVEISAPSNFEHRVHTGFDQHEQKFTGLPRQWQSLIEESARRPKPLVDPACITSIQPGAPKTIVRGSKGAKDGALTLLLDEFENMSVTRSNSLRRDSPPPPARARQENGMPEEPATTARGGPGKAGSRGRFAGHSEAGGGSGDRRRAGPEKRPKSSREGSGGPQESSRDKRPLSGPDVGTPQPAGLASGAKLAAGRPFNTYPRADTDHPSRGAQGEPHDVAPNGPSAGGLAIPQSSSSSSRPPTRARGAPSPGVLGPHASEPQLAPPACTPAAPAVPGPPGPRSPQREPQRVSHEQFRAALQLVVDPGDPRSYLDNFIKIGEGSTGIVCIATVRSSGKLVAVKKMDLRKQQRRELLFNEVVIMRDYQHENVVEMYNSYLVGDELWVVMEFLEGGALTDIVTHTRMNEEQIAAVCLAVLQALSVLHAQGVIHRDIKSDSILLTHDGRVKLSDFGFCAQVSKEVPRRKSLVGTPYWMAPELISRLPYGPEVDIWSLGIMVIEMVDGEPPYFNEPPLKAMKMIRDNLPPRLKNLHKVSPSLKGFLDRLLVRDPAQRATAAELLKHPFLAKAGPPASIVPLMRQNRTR

Row | SMILES | Residual activity ([1]; 1.0E-06 M) | Residual activity ([1]; 1.0E-07 M) | Residual activity, TSSK1 ([2]; assay conc. 1.0E-06 M) | Residual activity, TSSK1 ([2]; assay conc. 1.0E-07 M) | Residual activity ([3]; PAK4, 1.0E-06 M) | Residual activity ([3]; PAK4, 1.0E-07 M) | Residual activity ([4]; 1.0E-06 M) | Residual activity ([4]; 1.0E-07 M) | Residual activity ([5]; 1.0E-06 M) | Residual activity ([5]; 1.0E-07 M)
1 | C#Cc1cc(Nc2ncnc3cc(I)ccc23)ccc1Cl [Compound 41] | 98 % of control | 90 % of control | 105 % of control | 142 % of control | 82 % of control | 103 % of control | 107 % of control | 99 % of control | 94 % of control | 108 % of control
2 | C#Cc1cc(Nc2ncnc3cc(OC)c(OC)cc23)ccc1Cl [Compound 45] | 90 % of control | 95 % of control | 111 % of control | 127 % of control | 95 % of control | 103 % of control | 99 % of control | 88 % of control | 101 % of control | 108 % of control
